Results taken from US6057135A, “Process for manufacturing D-tagatose” (Kraft Foods, Inc., priority 1992, dated 2000).

Key:
L-arabinose isomerase [1] = target: T1, L-arabinose isomerase (Bacillus amyloliquefaciens, UniProt A0A9P1JJ98); experiment: L-arabinose isomerase bioconversion of D-galactose to D-tagatose, enzyme from Bacillus amyloliquefaciens IFO 3022; type: biochemical; conditions: 1.67 M D-galactose, 60° C., 120 min.
T1 construct: crude enzyme
T1 sequence (A0A9P1JJ98 1-499): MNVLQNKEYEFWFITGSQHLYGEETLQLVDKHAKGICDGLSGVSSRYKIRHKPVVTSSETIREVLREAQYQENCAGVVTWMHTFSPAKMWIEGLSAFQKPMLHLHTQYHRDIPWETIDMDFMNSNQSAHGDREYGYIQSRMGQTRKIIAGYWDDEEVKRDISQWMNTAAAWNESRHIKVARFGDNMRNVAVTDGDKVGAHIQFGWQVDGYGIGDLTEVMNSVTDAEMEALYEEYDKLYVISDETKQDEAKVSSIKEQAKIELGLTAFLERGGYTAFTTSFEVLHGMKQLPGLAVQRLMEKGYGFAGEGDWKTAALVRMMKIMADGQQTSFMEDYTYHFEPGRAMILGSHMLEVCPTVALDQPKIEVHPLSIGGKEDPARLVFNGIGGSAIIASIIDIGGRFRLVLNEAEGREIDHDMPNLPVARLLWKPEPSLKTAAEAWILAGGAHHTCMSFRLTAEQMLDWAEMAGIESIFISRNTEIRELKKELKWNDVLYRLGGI
Experimental: Bacillus amyloliquefaciens (previously known as Bacillus subtilis, IFO 3022, was evaluated as a source of L-arabinose isomerase. Cells of the culture were propagated on the same medium as used in Example 1 in the presence of L-arabinose as a carbon source. Optimum pH, temperature, metal ion and metal ion concentration were evaluated as summarized below.
In the following tests, sample B was comprised of 0.8 ml. D-galactose and 0.2 ml. water and sample X was comprised of 0.8 ml. D-galactose an 0.2 ml. enzyme. The dilution factor for the optical density (O.D.) reading was 200×. (The cystein carbazole method was used for the D-tagatose assay.)

L-arabinose isomerase [2] = target: T2, L-arabinose isomerase (Lactiplantibacillus pentosus, UniProt Q6UA74); experiment: L-arabinose isomerase activity assay (cysteine-carbazole ketose determination), enzyme from Lactobacillus pentosus ATCC 8041; type: biochemical; conditions: for % Activity with activator (None = 100): metal ion activator, bioconversion of D-galactose; for Enzyme Activity: 10 minutes, 0.1 M L-arabinose or 0.2 M D-galactose as substrate
T2 construct: whole cells, sonicated cell-free extract or immobilized, from L-arabinose-induced culture
T2 sequence (Q6UA74 1-474): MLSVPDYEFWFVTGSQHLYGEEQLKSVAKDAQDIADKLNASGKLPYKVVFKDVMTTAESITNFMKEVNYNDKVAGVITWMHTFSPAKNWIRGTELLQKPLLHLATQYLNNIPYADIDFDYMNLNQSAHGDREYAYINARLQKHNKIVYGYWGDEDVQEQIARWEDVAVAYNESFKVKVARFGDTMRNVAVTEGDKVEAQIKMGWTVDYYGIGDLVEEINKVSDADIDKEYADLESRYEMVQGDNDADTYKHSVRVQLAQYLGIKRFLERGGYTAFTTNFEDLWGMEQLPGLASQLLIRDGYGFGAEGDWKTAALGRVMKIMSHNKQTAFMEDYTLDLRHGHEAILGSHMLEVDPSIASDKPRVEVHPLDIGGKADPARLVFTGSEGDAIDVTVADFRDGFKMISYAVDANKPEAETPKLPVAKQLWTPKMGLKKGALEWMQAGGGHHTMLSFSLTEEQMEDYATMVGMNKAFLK
Experimental: The activity of L-arabinose isomerase can be assayed based on the appearance of keto-pentose (L-ribulose) or keto-hexose (D-tagatose) after incubation in the presence of the substrate aldo-pentose (L-arabinose) or aldo-hexose (D-galactose), respectively. The keto-pentose or keto-hexose can be measured colorimetrically utilizing cysteine-carbazole sulfuric acid as a reagent. The cysteine-carbazole method is described in, Zacharias Dische, "Color Reaction of Ketoses with Carbazole and Sulfuric Acid", Methods in Carbohydrate Chemistry (1962) page 481 [132]. Samples should be analyzed in duplicate, utilizing one sample as a blank to correct for substances which may interfere with the calorimetric ketose determination.
For purposes of this specification, one unit of L-arabinose isomerase activity is defined as that amount of enzyme which is required to produce one micromole of L-ribulose or D-tagatose from the respective substrates, L-arabinose or D-galactose, following ten minutes of incubation under assay conditions.
Following 24 hours of propagation, the cell mass was harvested and washed with a phosphate or maleate buffer at pH 6.5. The L-arabinose isomerase was extracted from the harvested cells by sonication.
To 1.0 ml of the bioconversion reaction medium (using a dilution factor if needed) the following is added:
0.2 ml of cystein hydrochloride (1.5% in water);
6.0 ml 75% sulfuric acid (450 ml conc. sulfuric acid+190 ml water); and
0.2 ml of 0.12% alcohol solution of carbazole (0.12 gram carbazole in 100 ml 95% ethanol).
The test tubes are incubated for 10 minutes at 57° C. and optical density (O.D.) is read at 540. The D-galactose substrate is used as a blank for reference.
A series of bioconversions were conducted with varied parameters to determine optimum conditions for Lactobacillus pentosus L-arabinose isomerase.

L-arabinose isomerase [3] = experiment: L-arabinose isomerase bioconversion of D-galactose to D-tagatose, enzyme from Arthrobacter sp. ATCC 21920; type: biochemical; conditions: 1.67 M D-galactose, 60° C., 120 min.
Experimental: The cultures were screened based on cell propagation on medium #1 of Example 3 in the presence of L-arabinose as a carbon source.
Cells of Arthrobacter sp. ATCC 21920 were propagated on medium #1 of Example 3 in the presence of L-arabinose as a carbon source. Optimum pH, temperature, metal ion and metal ion concentration were evaluated on the cell extract containing L-arabinose isomerase as summarized below.
In the following tests, sample B was comprised of 0.8 ml. D-galactose and 0.2 ml. water and sample X was comprised of 0.8 ml. D-galactose and 0.2 ml. enzyme. The dilution factor for the optical density (O.D.) reading was 200×.

L-arabinose isomerase [4] = conditions: cited from earlier work
[5] = 0.005 M metallic ion, O.D. 540, dilution 200×

## [Fe+2] [Ferrous]
L-arabinose isomerase [1]; 0.005 M metallic ion
  D-TAGATOSE: 0.020 M
L-arabinose isomerase [1]; [5]
  O.D. (X - B): 0.4438
L-arabinose isomerase [2]
  % Activity with activator (None = 100): 200%
L-arabinose isomerase [2]; range 1 MM-10 MM
  % Activity over activator range: 123-250%
L-arabinose isomerase [3]; 0.005 M metallic ion
  D-TAGATOSE: 0.037 M
L-arabinose isomerase [3]; [5]
  O.D. (X - B): 0.8030

## O=C[C@H](O)[C@@H](O)[C@@H](O)CO [L-arabinose, reference compound]
L-arabinose isomerase [2]; 35° C.
  Enzyme Activity: 24.6 u/ml.
L-arabinose isomerase [2]; 60° C.
  Enzyme Activity: 68.1 u/ml.
L-arabinose isomerase [2]; substrate as labelled, propagation 24 hours, 37° C., pH 6.5, BYF 100 medium
  total activity, Present Invention Data: 4,220 u/L.
L-arabinose isomerase [2]; substrate as labelled, propagation 24 hours, 37° C., pH 6.5, BYF 100 medium, per g cell mass
  activity (10 min.), Present Invention Data: 425 u/g.
L-arabinose isomerase [4]; Yamanaka and Wood, 1966
  affinity of the isomerase for the sugar: high affinity
L-arabinose isomerase [4]; substrate as labelled, propagation 24 hours, 37° C.
  total activity, Published Data: 525 u/L.
L-arabinose isomerase [4]; substrate as labelled, propagation 24 hours, 37° C., per g cell mass
  activity (10 min.), Published Data: 350 u/g.

## [Mg] [Magnesium]
L-arabinose isomerase [1]; 0.005 M metallic ion
  D-TAGATOSE: 0.005 M
L-arabinose isomerase [1]; [5]
  O.D. (X - B): 0.1048
L-arabinose isomerase [2]
  % Activity with activator (None = 100): 141%
L-arabinose isomerase [3]; 0.005 M metallic ion
  D-TAGATOSE: 0.036 M
L-arabinose isomerase [3]; [5]
  O.D. (X - B): 0.7890

## [Mn+2] [Manganese]
L-arabinose isomerase [1]; 0.005 M metallic ion
  D-TAGATOSE: 0.035 M
L-arabinose isomerase [1]; [5]
  O.D. (X - B): 0.7610
L-arabinose isomerase [1]; manganese ion 0.001 M
  D-TAGATOSE: 0.036 M
  O.D. (X - B): 0.7723
L-arabinose isomerase [1]; manganese ion 0.003 M
  D-TAGATOSE: 0.030 M
  O.D. (X - B): 0.6441
L-arabinose isomerase [1]; manganese ion 0.005 M
  D-TAGATOSE: 0.031 M
  O.D. (X - B): 0.6815
L-arabinose isomerase [1]; manganese ion 0.007 M
  D-TAGATOSE: 0.031 M
  O.D. (X - B): 0.6678
L-arabinose isomerase [1]; manganese ion 0.009 M
  D-TAGATOSE: 0.030 M
  O.D. (X - B): 0.6591
L-arabinose isomerase [1]; manganese ion 0.011 M
  D-TAGATOSE: 0.032 M
  O.D. (X - B): 0.7007
L-arabinose isomerase [1]; manganese ion 0.013 M
  D-TAGATOSE: 0.032 M
  O.D. (X - B): 0.6851
L-arabinose isomerase [2]
  % Activity with activator (None = 100): 177%
L-arabinose isomerase [3]; 0.005 M metallic ion
  D-TAGATOSE: 0.044 M
L-arabinose isomerase [3]; [5]
  O.D. (X - B): 0.9574
L-arabinose isomerase [3]; manganese ion 0.001 M
  D-TAGATOSE: 0.041 M
  O.D. (X - B): 0.8919
L-arabinose isomerase [3]; manganese ion 0.003 M
  D-TAGATOSE: 0.035 M
  O.D. (X - B): 0.7600
L-arabinose isomerase [3]; manganese ion 0.005 M
  D-TAGATOSE: 0.040 M
  O.D. (X - B): 0.8848
L-arabinose isomerase [3]; manganese ion 0.007 M
  D-TAGATOSE: 0.042 M
  O.D. (X - B): 0.9057
L-arabinose isomerase [3]; manganese ion 0.009 M
  D-TAGATOSE: 0.051 M
  O.D. (X - B): 1.1175
L-arabinose isomerase [3]; manganese ion 0.011 M
  D-TAGATOSE: 0.043 M
  O.D. (X - B): 0.9333
L-arabinose isomerase [3]; manganese ion 0.013 M
  D-TAGATOSE: 0.049 M
  O.D. (X - B): 1.0753

## [Zn+2] [Zinc]
L-arabinose isomerase [1]; 0.005 M metallic ion
  D-TAGATOSE: 0.007 M
L-arabinose isomerase [1]; [5]
  O.D. (X - B): 0.1596
L-arabinose isomerase [2]
  % Activity with activator (None = 100): 110%
L-arabinose isomerase [3]; 0.005 M metallic ion
  D-TAGATOSE: 0.012 M
L-arabinose isomerase [3]; [5]
  O.D. (X - B): 0.2544
